In one experiment the target is T1, SCD5 (Homo sapiens, UniProt Q86SK9).
T1 construct: host or cells: S. cerevisiae ole1Δ strain (W303 pdr1Δ pdr3Δ background), plasmid pRS316 with TDH3 promoter and CYC1 terminator
T1 sequence (Q86SK9 1-330): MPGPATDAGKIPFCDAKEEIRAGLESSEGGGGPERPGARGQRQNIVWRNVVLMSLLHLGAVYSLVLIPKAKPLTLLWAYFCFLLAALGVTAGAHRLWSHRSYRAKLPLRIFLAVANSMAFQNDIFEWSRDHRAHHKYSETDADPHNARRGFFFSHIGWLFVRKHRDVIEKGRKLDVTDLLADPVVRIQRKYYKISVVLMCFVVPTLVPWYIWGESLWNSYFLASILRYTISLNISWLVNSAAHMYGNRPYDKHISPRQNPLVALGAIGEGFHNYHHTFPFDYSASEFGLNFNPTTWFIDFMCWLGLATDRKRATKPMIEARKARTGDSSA
Briefly: Growth inhibition of humanized yeast strain expressing SCD5 as sole desaturase. Type of experiment: cell-based. As to conditions: humanized yeast strain expressing SCD5. An outline of the steps:
(§1)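 ole1Δ yeast (W303 pdr1Δ pdr3Δ background) carrying plasmid-borne Ole1, SCD1 or SCD5, grown in uracil-free media; cultures pre-grown in raffinose, seeded at 2× density 0.02 in galactose media with compound. Growth read as OD600 after 24 h at 30° C. for Ole1, 40 h for SCD1/SCD5.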

The subject of experiment [1] is yeast strains expressing the human α-synuclein. Briefly: Yeast α-synuclein toxicity rescue assay (OD600 growth). The conditions noted are these: 40 h; for EC50: read-out: α-Syn EC50; for Emax: read-out: α-Syn Emax.
Text: The induced expression of α-synuclein and ApoE4 confers cytotoxicity, thus enabling the identification of compounds that can restore cell viability. This instantaneous/synchronous induction of α-synuclein and ApoE4 can be achieved due to the following expression control. In glucose-containing media, gene expression from the GAL1 promoter is ‘off’ and actively repressed by additional epigenetic factors. In raffinose, expression is ‘off’, but the promoter not actively repressed. Upon transition to galactose-containing media, the promoter is instantaneously turned ‘on’ to achieve robust and synchronous induction of α-synuclein or ApoE4 expression. This highly regulated induction provides a robust window for the determination of both efficacy (amplitude of protective effect) and potency (concentration of protective effect) of cytoprotective compounds.
Re-suspended compound stocks were subsequently arrayed into 384 well compound plates using automated pipetting. All other wells not receiving stock compound were filled with 10 μL of 100% DMSO using an automated plate filler (Multidrop Combi). An 11 point, 2-fold serial dilution was then performed using the robotic platform. Compound assay plates were covered with foil and stored at −20° C. until use.
Each strain was handled according to standard protocols and cultured in media composed of CSM (complete synthetic media), YNB (yeast nitrogenous base), and a 2% (w/v) carbon source (either glucose, raffinose, or galactose).
In a standard yeast assay, a single-use aliquot of cells was thawed on ice and diluted into CSM/glucose (5 mL). Cultures were grown for 8 hours at 30° C. This pre-growth enables the yeast to exit the thaw and begin to grow without expressing aSyn or ApoE4. After 8 hours, cell density (OD600) was determined and cultures diluted to an OD600 of 0.01 in CSM/raffinose for an overnight culture phase at 30° C. During this period, the active glucose repression of the GAL1 promoter was relieved; however, expression of the α-Syn/ApoE4 genes were not yet induced. After ˜16 hours of growth, cultures attain an OD600 of 0.4-0.8 and were ready to apply to assay plates containing compound.
Compound profiling assays were executed in clear-bottom 384 well plates. First, compound plates were thawed at room temperature for 45′, centrifuged at 1,000×g for 1 minute, and the foil removed. Clear 384 well assay plates were then filled with 15 μL of CSM/galactose. […] The pin tool was washed iteratively with both 50% DMSO and 100% ethanol between each assay plate. After delivering compound to each assay plate, the overnight CSM/raffinose aSyn or ApoE4 cultures were added at a 2X cell density (0.04 for aSyn and 0.08 for ApoE4) in CSM/galactose to achieve a final assay OD600 of 0.02 and 0.04 for aSyn and ApoE, respectively. The cultures (15 μL per well) were then dispensed to the compound -containing 384 well assay plates using an automated plate filler. Plates were incubated in a humidified 30° C. incubator for 40 or 24 hours for aSyn and ApoE4, respectively. The ODsoo of each assay plate was then read with a microplate reader (e.g., Perkin Elmer Envision).
The efficacy and potency of compounds were calculated according to the following. Raw data (OD600 values) were first background corrected to account for OD600 contributed by the plate and media itself. The efficacy (percent above DMSO, herein referred to as “Emax”) was calculated according to the equation: (Experimental well−DMSO control well)/(DMSO control well)*100. […] Normalized dose-response data was fit with a logistic regression curve using Spotfire (TIBCO), or similar curve-fitting software package. EC50 values were then reported along with EMax to provide both efficacy and potency measures for each analog and enable further compound design.
A further experiment addresses T2, Ole1 (Saccharomyces cerevisiae, UniProt P21147).
T2 construct: expressed in transfected cells; host or cells: S. cerevisiae ole1Δ strain (W303 pdr1Δ pdr3Δ background), plasmid pRS316 with TDH3 promoter and CYC1 terminator
T2 sequence (P21147 1-510): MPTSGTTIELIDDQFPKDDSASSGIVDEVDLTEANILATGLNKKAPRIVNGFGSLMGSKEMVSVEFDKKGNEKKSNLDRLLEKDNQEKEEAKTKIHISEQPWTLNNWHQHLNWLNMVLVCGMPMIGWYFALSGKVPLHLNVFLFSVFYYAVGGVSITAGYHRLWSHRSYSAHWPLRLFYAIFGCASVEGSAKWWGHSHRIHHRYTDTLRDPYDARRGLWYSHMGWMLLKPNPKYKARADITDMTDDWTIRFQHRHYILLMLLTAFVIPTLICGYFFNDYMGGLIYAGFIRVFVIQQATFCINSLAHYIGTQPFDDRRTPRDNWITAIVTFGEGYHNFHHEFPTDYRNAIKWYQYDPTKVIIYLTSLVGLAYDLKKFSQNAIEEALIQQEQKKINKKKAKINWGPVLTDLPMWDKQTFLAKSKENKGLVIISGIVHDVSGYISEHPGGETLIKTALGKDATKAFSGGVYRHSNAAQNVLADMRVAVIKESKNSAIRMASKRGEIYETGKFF
The experiment is described as follows: Growth inhibition of yeast strain expressing Ole1 as sole desaturase. As to conditions: yeast strain expressing Ole1 as sole desaturase. It is filed as cell-based. An outline of the steps:
as §1

Another experiment addresses T3, SCD1 (Homo sapiens, UniProt O00767).
T3 construct: host or cells: S. cerevisiae ole1Δ strain (W303 pdr1Δ pdr3Δ background), plasmid pRS316 with TDH3 promoter and CYC1 terminator
T3 sequence (O00767 1-359): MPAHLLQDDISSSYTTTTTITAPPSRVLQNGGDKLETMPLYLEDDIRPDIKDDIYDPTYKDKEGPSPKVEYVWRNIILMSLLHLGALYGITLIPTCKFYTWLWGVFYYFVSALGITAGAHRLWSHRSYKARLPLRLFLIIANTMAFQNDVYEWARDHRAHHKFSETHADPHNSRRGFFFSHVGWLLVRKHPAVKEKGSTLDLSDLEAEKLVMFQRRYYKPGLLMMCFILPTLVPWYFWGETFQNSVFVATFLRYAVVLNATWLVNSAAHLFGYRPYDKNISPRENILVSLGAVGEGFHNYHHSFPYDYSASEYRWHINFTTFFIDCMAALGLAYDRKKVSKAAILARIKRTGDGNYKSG
The experiment is described as follows: Growth inhibition of humanized yeast strain expressing SCD1 as sole desaturase. Type of experiment: cell-based. As to conditions: humanized yeast strain expressing SCD1. The method in brief:
as §1

Each structure is given as a SMILES string. “And” between values parts separate entries of the source, which are not always exact repeats. Equal entries are not always repeated.

With `Cc1nn(C)c2cc(-c3noc(C4CCN(C(=O)C(C)N5Cc6ccccc6C5=O)CC4)n3)ccc12` (stereo not drawn) [Compound 141], on SCD5, the IC50 (as a rule, the midpoint of a concentration-inhibition curve) was more than 45 µM and the “SCD5 % Max Inhibition” value was 78.91%. In experiment [1], the EC50 (usually the concentration needed to bring the measured effect to its halfway point) was 0.019 µM and the Emax was 259%. Moreover, at Ole1, the IC50 is more than 45 µM and the “OLE1 % Max Inhibition” value stood at 1.77%. On SCD1, the IC50 was more than 45 µM and the “SCD1 % Max Inhibition” value came out at 86.53%.

Turning to `CCOc1cnc(-c2noc(C3CCN(C(=O)C4CC(=O)N(c5ccccc5)C4)CC3)n2)cc1OC` (stereo not drawn) [Compound 118], at SCD5, the IC50 worked out at 27.5 µM and the “SCD5 % Max Inhibition” value came out at 32.21%. For the same compound, in experiment [1], the EC50 came to 15.7 µM and the Emax stood at 65%. For the same compound, on Ole1, the IC50 is more than 45 µM and the “OLE1 % Max Inhibition” value was 87.29%. Besides, at SCD1, the IC50 is more than 45 µM and the “SCD1 % Max Inhibition” value came out at 93.37%.

`COc1ccc(-c2noc(C3CCN(C(=O)CNC(=O)C(C)C)CC3)n2)cc1OC` [Compound 47]: on SCD5, the IC50 was more than 45 µM and the “SCD5 % Max Inhibition” value was determined as 74.25%. Further, in experiment [1], the EC50 was found to be 16.5 µM and the Emax amounted to 88%. Besides, on Ole1, the IC50 is more than 45 µM and the “OLE1 % Max Inhibition” value worked out at 109.20%. Also, on SCD1, the IC50 is more than 45 µM and the “SCD1 % Max Inhibition” value is 73.30%.

As for `COc1cccc(C(=O)NCC(=O)N2CCC(c3nc(-c4ccc5c(C)nn(C)c5c4)no3)CC2)n1` [Compound 154], at SCD5, the half-inhibitory concentration (IC50) is more than 45 µM and the “SCD5 % Max Inhibition” value worked out at 3.25%. In experiment [1], the half-maximal effective concentration (EC50) stood at 0.057 µM and the Emax came out at 410%. In addition, at Ole1, the IC50 is more than 45 µM and the “OLE1 % Max Inhibition” value is on record as 1.20%. Further, on SCD1, the IC50 is more than 45 µM and the “SCD1 % Max Inhibition” value came to 68.90%.

On to `COc1ccc(-c2noc(C3CCN(C(=O)C(C)(C)NC(=O)c4ccccc4)CC3)n2)cc1OC` [Compound 29], for which, at SCD5, the IC50 was more than 45 µM and the “SCD5 % Max Inhibition” value came out at 74.10%. Besides, in experiment [1], the EC50 turned out to be 13.9 µM and the Emax was 38%. In addition, at Ole1, the IC50 is more than 45 µM and the “OLE1 % Max Inhibition” value is 91.00%. In addition, on SCD1, the IC50 is more than 45 µM and the “SCD1 % Max Inhibition” value is 69.52%.

Regarding `Cc1noc2cc(-c3noc(C4CCN(C(=O)CNC(=O)c5ccccc5)CC4)n3)ccc12` [Compound 135], at SCD5, the IC50 is more than 45 µM and the “SCD5 % Max Inhibition” value is reported as 91.64%. In experiment [1], the EC50 was found to be 0.593 µM and the Emax amounted to 144%. Moreover, on Ole1, the IC50 was more than 45 µM and the “OLE1 % Max Inhibition” value was found to be 99.53%. Moreover, on SCD1, the IC50 was more than 45 µM and the “SCD1 % Max Inhibition” value is 92.42%.

`COc1ccnc(C(=O)NCC(=O)N2CCC(c3nc(-c4ccc5c(C)nn(C)c5c4)no3)CC2)c1` [Compound 150]: on SCD5, the IC50 was more than 45 µM and the “SCD5 % Max Inhibition” value was determined as 86.15%. Further, in experiment [1], the concentration giving a half-maximal response (EC50) stood at 0.099 µM and the Emax amounted to 473%. In addition, at Ole1, the IC50 was more than 45 µM and the “OLE1 % Max Inhibition” value stood at 5.16%. At SCD1, the IC50 was more than 45 µM and the “SCD1 % Max Inhibition” value stood at 74.48%.

On to `Cc1noc2cc(-c3noc(C4CCN(C(=O)C5CC(=O)N(c6ccccc6)C5)CC4)n3)ccc12` (stereo not drawn) [Compound 136], for which, at SCD5, the IC50 was more than 45 µM and the “SCD5 % Max Inhibition” value is 17.07%. In experiment [1], the EC50 came out at 4.08 µM and the Emax was determined as 67%. On Ole1, the IC50 is more than 45 µM and the “OLE1 % Max Inhibition” value is reported as 73.60%. In addition, at SCD1, the IC50 was more than 45 µM and the “SCD1 % Max Inhibition” value was determined as 34.33%.

Take `Cc1nn(C)c2cc(-c3noc(C4CCN(C(=O)CNC(=O)c5ccccc5)CC4)n3)ncc12` [Compound 114]: at SCD5, the IC50 was more than 45 µM and the “SCD5 % Max Inhibition” value stood at 77.66%. Further, in experiment [1], the EC50 came out at 17.3 µM and the Emax was found to be 373%. Moreover, on Ole1, the IC50 is more than 45 µM and the “OLE1 % Max Inhibition” value is recorded as 90.17%. Besides, at SCD1, the IC50 is more than 45 µM and the “SCD1 % Max Inhibition” value is listed as 74.54%.

As to `CCOc1ccc(-c2noc(C3CCN(C(=O)[C@H]4CN(c5ccccc5)C(=O)O4)CC3)n2)cc1OC` [Compound 148], at SCD5, the IC50 is more than 45 µM and the “SCD5 % Max Inhibition” value worked out at 86.53%. In experiment [1], the EC50 came out at 13.7 µM and the Emax was found to be 258%. Moreover, at Ole1, the 50% inhibitory concentration (IC50) is more than 45 µM and the “OLE1 % Max Inhibition” value came to 99.90%. Besides, on SCD1, the IC50 is more than 45 µM and the “SCD1 % Max Inhibition” value turned out to be 79.55%.

As for `Cc1nn(C)c2cc(-c3noc(N4CCN(C(=O)c5cc(-c6ccccc6)no5)CC4)n3)ccc12` [Compound 103], on SCD5, the IC50 was more than 45 µM and the “SCD5 % Max Inhibition” value is reported as 68.60%. In experiment [1], the half-maximal effective concentration (EC50) is 2.02 µM and the Emax amounted to 75%. Moreover, at Ole1, the IC50 was more than 45 µM and the “OLE1 % Max Inhibition” value is given as 5.27%. In addition, on SCD1, the IC50 is more than 45 µM and the “SCD1 % Max Inhibition” value stood at 93.33%.

With `CCOc1ccc(-c2noc(C3CCN(C(=O)CNC(=O)c4ccccc4)CC3)n2)cc1C#N` [compound 101], the 50% inhibitory concentration (IC50) against SCD5, at Ole1 and on SCD1 was more than 45 µM throughout. In experiment [1], the EC50 worked out at 1.18 µM. Besides, the Emax in experiment [1] was 122%.

As to `CCOc1ccc(-c2noc(C3CCN(C(=O)CN4Cc5ccccc5C4=O)CC3)n2)nc1OC` [Compound 142], at SCD5, the IC50 is more than 45 µM and the “SCD5 % Max Inhibition” value was 26.00%. In experiment [1], the EC50 was 7.64 µM and the Emax was 319%. At Ole1, the IC50 is more than 45 µM and the “OLE1 % Max Inhibition” value turned out to be 1.11%. Besides, on SCD1, the IC50 was more than 45 µM and the “SCD1 % Max Inhibition” value was 80.83%.

Consider `Cc1nnc(C)c2cc(-c3noc(C4CCN(C(=O)CNC(=O)c5ccccc5)CC4)n3)ccc12` [Compound 105], for which, at SCD5, the IC50 was more than 45 µM and the “SCD5 % Max Inhibition” value is 13.93%. Besides, in experiment [1], the EC50 came out at 3.18 µM and the Emax is 391%. On Ole1, the IC50 is more than 45 µM and the “OLE1 % Max Inhibition” value stood at 34.19%. Moreover, on SCD1, the IC50 was more than 45 µM and the “SCD1 % Max Inhibition” value came to 41.38%.

On to `O=C(NCC(=O)N1CCC(c2nc(-c3ccccn3)no2)CC1)c1ccccc1` [compound 78], for which the figures for the IC50 at SCD5, against Ole1 and on SCD1 were more than 45 µM, 38.3 µM and more than 45 µM, respectively. For the same compound, the EC50 in experiment [1] is 14.6 µM. Besides, the Emax in experiment [1] is 38%.

For the compound `Cc1nn(C)c2cc(-c3noc(C4CCN(C(=O)CNC(=O)c5ccccc5)CC4)n3)ccc12` [Compound 40], the 50% inhibitory concentration (IC50) at SCD5 is more than 45 µM. In experiment [1], the EC50 was 0.086 µM and the Emax was 443%. Besides, at Ole1, the IC50 is more than 45 µM; the “OLE1 % Max Inhibition” value is 1.26% and 0.80% and 4.9%. Moreover, at SCD1, the IC50 is more than 45 µM; the “SCD1 % Max Inhibition” value was 41.70% and 47.19% and 57.7%.

With `CCOc1ccc(-c2noc(N3CCC(C(=O)N4CCN(C)C(c5ccccc5)C4)CC3)n2)cc1OC` (stereo not drawn) [Compound 113], at SCD5, the IC50 was more than 45 µM and the “SCD5 % Max Inhibition” value is listed as 27.28%. Also, in experiment [1], the half-maximal effective concentration (EC50) was determined as 15.6 µM and the Emax worked out at 55%. Besides, at Ole1, the IC50 was more than 45 µM and the “OLE1 % Max Inhibition” value is listed as 5.55%. At SCD1, the IC50 was 40.7 µM and the “SCD1 % Max Inhibition” value was determined as 55.33%.

Source of the values: patent US11873298B2, “Compounds and uses thereof” (JANSSEN PHARMACEUTICA NV, priority 2017, dated 2024).
